Results taken from ChEMBL document CHEMBL2034872, “Antineoplastic agents. 587. Isolation and structure of 3-epipancratistatin from Narcissus cv. Ice Follies” (2012).
Values after ≈ are worked out from the molar mass of the structure shown.

Legend:
Format in all cases: functional
[1] = tested on: P388; test: Cytotoxicity against mouse P388 cells after 48 hrs by cell counting; details: P388, 48 h, read-out: ED50 (the source's name)
[2] = tested on: SF-268; test: Cytotoxicity against human SF268 cells after 48 hrs by SRB assay; details: SF-268, 48 h
[3] = tested on: MCF7; test: Cytotoxicity against human MCF7 cells after 48 hrs by SRB assay; details: MCF7, 48 h
[4] = tested on: NCI-H460; test: Cytotoxicity against human NCI-H460 cells after 48 hrs by SRB assay; details: NCI-H460, 48 h
[5] = tested on: KM-20L2; test: Cytotoxicity against human KM20L2 cells after 48 hrs by SRB assay; details: KM-20L2, 48 h
[6] = tested on: BXPC-3; test: Cytotoxicity against human BxPC3 cells after 48 hrs by SRB assay; details: BXPC-3, 48 h
[7] = tested on: DU-145; test: Cytotoxicity against human DU145 cells after 48 hrs by SRB assay; details: DU-145, 48 h

O=C1N[C@@H]2C(=C[C@H](O)[C@@H](O)[C@H]2O)c2cc3c(c(O)c21)OCO3 [NARCICLASINE]
EC50 [1]: 0.018 µg/mL (≈ 0.0586 µM)

O=C1N[C@H]2[C@H](O)[C@H](O)[C@@H](O)[C@H](O)[C@@H]2c2cc3c(c(O)c21)OCO3 [PANCRATISTATIN]
GI50 [2]: 0.014 µg/mL (≈ 0.043 µM) | GI50 [3]: 0.023 µg/mL (≈ 0.0707 µM) | EC50 [1]: 0.017 µg/mL (≈ 0.0523 µM) | GI50 [4]: 0.032 µg/mL (≈ 0.0984 µM) | GI50 [5]: 0.025 µg/mL (≈ 0.0769 µM) | GI50 [6]: 0.02 µg/mL (≈ 0.0615 µM) | GI50 [7]: 0.015 µg/mL (≈ 0.0461 µM)

O=C1N[C@H]2[C@H](O)[C@@H](O)[C@@H](O)[C@H](O)[C@@H]2c2cc3c(c(O)c21)OCO3 (relative stereo)
GI50 [2]: 0.74 µg/mL (≈ 2.28 µM) | GI50 [3]: 2.2 µg/mL (≈ 6.76 µM) | EC50 [1]: 0.69 µg/mL (≈ 2.12 µM) | GI50 [4]: 0.85 µg/mL (≈ 2.61 µM) | GI50 [5]: 2.3 µg/mL (≈ 7.07 µM) | GI50 [6]: 1.7 µg/mL (≈ 5.23 µM) | GI50 [7]: 1.3 µg/mL (≈ 4 µM)
